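Cells were grown in 96-well plates and exposed to each compound for 48 hours at five concentrations; endpoints were interpolated linearly between bracketing concentrations, or set to the highest concentration if not reached. TGI marks complete inhibition of growth.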
Key:
Test in all cases: inhibition of tumour cell growth, NCI panel, 48 h
NCI-H460 lung = system: NCI-H460 lung
PC-3 prostate = system: PC-3 prostate
UO-31 renal = system: UO-31 renal
XF 498 CNS = system: XF 498 CNS
RPMI-8226 leukemia = system: RPMI-8226 leukemia
MDA-N = system: MDA-N
ACHN renal = system: ACHN renal
U251 CNS = system: U251 CNS
RXF 393 renal = system: RXF 393 renal
A498 renal = system: A498 renal
BT-549 breast = system: BT-549 breast
UACC-62 melanoma = system: UACC-62 melanoma
CCRF-CEM leukemia = system: CCRF-CEM leukemia
K-562 leukemia = system: K-562 leukemia
SW-620 colon = system: SW-620 colon
DMS 114 small cell lung = system: DMS 114 small cell lung
COLO 205 colon = system: COLO 205 colon
KM20L2 colon = system: KM20L2 colon
KM12 colon = system: KM12 colon
SF-268 CNS = system: SF-268 CNS
M19-MEL melanoma = system: M19-MEL melanoma
UACC-257 melanoma = system: UACC-257 melanoma
SNB-19 CNS = system: SNB-19 CNS
MOLT-4 leukemia = system: MOLT-4 leukemia
SNB-78 CNS = system: SNB-78 CNS
SK-MEL-5 melanoma = system: SK-MEL-5 melanoma
HCT-15 colon = system: HCT-15 colon
MCF7 breast = system: MCF7 breast
NCI/ADR-RES ovarian = system: NCI/ADR-RES ovarian
NCI-H226 lung = system: NCI-H226 lung
DMS 273 small cell lung = system: DMS 273 small cell lung
MDA-MB-231 breast = system: MDA-MB-231 breast
CAKI-1 renal = system: CAKI-1 renal
SR leukemia = system: SR leukemia
MALME-3M melanoma = system: MALME-3M melanoma
A549 NSCLC = system: A549 NSCLC
SK-MEL-28 melanoma = system: SK-MEL-28 melanoma
MDA-MB-435 = system: MDA-MB-435
HT29 colon = system: HT29 colon
HS 578T breast = system: HS 578T breast
HOP-92 NSCLC = system: HOP-92 NSCLC
OVCAR-3 ovarian = system: OVCAR-3 ovarian
TK-10 renal = system: TK-10 renal
HCT-116 colon = system: HCT-116 colon
LOX IMVI melanoma = system: LOX IMVI melanoma
LXFL 529 NSCLC = system: LXFL 529 NSCLC
HL-60(TB) leukemia = system: HL-60(TB) leukemia
SN12C renal = system: SN12C renal
EKVX NSCLC = system: EKVX NSCLC
HOP-62 NSCLC = system: HOP-62 NSCLC
SNB-75 CNS = system: SNB-75 CNS
DU-145 prostate = system: DU-145 prostate
IGROV1 ovarian = system: IGROV1 ovarian
M14 melanoma = system: M14 melanoma
HCC-2998 colon = system: HCC-2998 colon
786-0 renal = system: 786-0 renal
OVCAR-5 ovarian = system: OVCAR-5 ovarian
DLD-1 colon = system: DLD-1 colon
OVCAR-8 ovarian = system: OVCAR-8 ovarian
T-47D breast = system: T-47D breast
SF-539 CNS = system: SF-539 CNS
NCI-H23 lung = system: NCI-H23 lung
SK-MEL-2 melanoma = system: SK-MEL-2 melanoma
NCI-H522 lung = system: NCI-H522 lung
OVCAR-4 ovarian = system: OVCAR-4 ovarian
SF-295 CNS = system: SF-295 CNS
SK-OV-3 ovarian = system: SK-OV-3 ovarian
HOP-18 NSCLC = system: HOP-18 NSCLC

Measured: TGI

C[C@]12C=CC(=O)C=C1[C@@H](F)C[C@H]1[C@@H]3CC[C@](O)(C(=O)CO)[C@@]3(C)C[C@H](O)[C@@]12F
> 100 µM: NCI-H460 lung | PC-3 prostate | UO-31 renal | XF 498 CNS | RPMI-8226 leukemia | MDA-N | ACHN renal | U251 CNS | RXF 393 renal | A498 renal | BT-549 breast | UACC-62 melanoma | CCRF-CEM leukemia | K-562 leukemia | SW-620 colon | DMS 114 small cell lung | COLO 205 colon | KM20L2 colon | KM12 colon | SF-268 CNS | M19-MEL melanoma | UACC-257 melanoma | SNB-19 CNS | MOLT-4 leukemia | SNB-78 CNS | SK-MEL-5 melanoma | HCT-15 colon | MCF7 breast | NCI/ADR-RES ovarian | NCI-H226 lung | DMS 273 small cell lung | MDA-MB-231 breast | CAKI-1 renal | SR leukemia | MALME-3M melanoma | A549 NSCLC | SK-MEL-28 melanoma | MDA-MB-435 | HT29 colon | HS 578T breast | HOP-92 NSCLC | OVCAR-3 ovarian | TK-10 renal | HCT-116 colon | LOX IMVI melanoma | LXFL 529 NSCLC | HL-60(TB) leukemia | SN12C renal | EKVX NSCLC | HOP-62 NSCLC | SNB-75 CNS | DU-145 prostate | IGROV1 ovarian | M14 melanoma | HCC-2998 colon | 786-0 renal | OVCAR-5 ovarian | DLD-1 colon | OVCAR-8 ovarian | T-47D breast | SF-539 CNS | NCI-H23 lung | SK-MEL-2 melanoma | NCI-H522 lung | OVCAR-4 ovarian | SF-295 CNS | SK-OV-3 ovarian

O=C(O)CSc1ccc2[nH]c3ccccc3c(=O)c2c1
> 100 µM: NCI-H460 lung | UO-31 renal | RPMI-8226 leukemia | ACHN renal | U251 CNS | A498 renal | UACC-62 melanoma | CCRF-CEM leukemia | K-562 leukemia | SW-620 colon | DMS 114 small cell lung | COLO 205 colon | KM20L2 colon | SF-268 CNS | M19-MEL melanoma | UACC-257 melanoma | SNB-19 CNS | MOLT-4 leukemia | SK-MEL-5 melanoma | HCT-15 colon | NCI-H226 lung | DMS 273 small cell lung | CAKI-1 renal | SR leukemia | MALME-3M melanoma | A549 NSCLC | SK-MEL-28 melanoma | HT29 colon | HOP-92 NSCLC | HOP-18 NSCLC | OVCAR-3 ovarian | TK-10 renal | HCT-116 colon | LOX IMVI melanoma | LXFL 529 NSCLC | HL-60(TB) leukemia | SN12C renal | HOP-62 NSCLC | IGROV1 ovarian | M14 melanoma | HCC-2998 colon | 786-0 renal | OVCAR-5 ovarian | DLD-1 colon | OVCAR-8 ovarian | NCI-H23 lung | OVCAR-4 ovarian | SF-295 CNS | SK-OV-3 ovarian

Source: PubChem BioAssay (NCI)
